Experiments:
[1] = system: antibody (anti-PSC1A, rabbit antisera); assay: Competitive ELISA: free FusC against antibody recognition of conjugate PSC2A; assay type: binding; conditions: Free FusC 6.5 μg/ml
Protocol: FIG. 5: Competitive ELISA detection of TAFC and FusC. A. Immobilised antigen was an equimolar combination of PSC2B and PSC3B (acetylated & non-acetylated cBSA-SMCC-FusC^Fe3+), coated at 2.5 μg/ml (250 ng/well). Murine antisera was used (1/1000) which was raised against KLH-sHSAB-ih/cTAFC(PSC1A & PSC1B); Competition antigens were either FusC or cTAFC (0-20 μg/ml, respectively). B. FusC detection by ELISA. Free FusC 6.5 μg/ml prevents antibody (anti-PSC1A, rabbit antisera) recognition of conjugate PSC2A (cBSA-SATA-SMCC-FusC).
Microtitre plates (Nunc Maxisorp™ available from Nunc A/S, Roskilde, Denmark) were coated with either FusC (range used for optimisation: 0-66 μg/ml) or an equimolar combination of PSC2B/PSC3B conjugates (range used for optimisation: 0-10 μg/ml) in 50 mM sodium carbonate pH 9.4 for 16 hr (100 μl/well). […] Finally the absorbance was measured at 450/620 nm using a Synergy plate reader and standard curves of A450/620 nm versus log FusC concentration (0-100 μg/ml (or 0-20 μg/ml TAFC) constructed, from which the concentration of FusC in normal clinical specimens, of animal and human origin, was computed.
For example, it was observed that FusC or TAFC, respectively, could be detected by ELISA using murine antisera [anti-KLH-sHSAB-ihTAFC or cTAFC] […]

[2] = system: rabbit Anti-FusC; assay: Protein immunoblot of gold nanoparticle conjugates; assay type: binding; conditions: serial dilutions
Protocol: Confirmation of conjugate formation was performed using a protein immunoblot. 4 μl of AuNP-FsC-BSA, Au-BSA and FusC-BSA samples were spotted onto a nitrocellulose membrane strip in serial dilutions (A-E) prepared in 2 mM borate (pH 9.0). Spots were allowed to dry before the strip was blocked for 30 min in Marvel (5% (w/v) in PBS). Membranes were then incubated for 30 min with primary antibody (rabbit Anti-FusC), diluted using blocking buffer (1/1000). Nitrocellulose blots were subsequently washed (2×5 min) in blocking solution and then incubated with a 1/1000 dilution of anti-rabbit IgG peroxidase-conjugated secondary antibody (Sigma-Aldrich), shaking for 30 min at room temperature. The nitrocellulose membranes were then washed extensively (2×5 min) in blocking solution and rinsed (2×5 min) with PBS. Immunoreactive samples were visualized using Pierce ECL Chemiluminescent Substrate (Fischer Scientific) for the detection of horseradish peroxidase.

Compound | antibody recognition of conjugate PSC2A (cBSA-SATA-SMCC-FusC) [1] | reactivity in immunoblot with rabbit Anti-FusC [2]
C/C1=C/C(=O)N(O)CCCC(N)C(=O)OCC/C(C)=C\C(=O)N(O)CCCC(N)C(=O)OCC/C(C)=C\C(=O)N(O)CCCC(N)C(=O)OCC1 (centres unmarked) [FusC, fusarinine C] | prevents | –
BSA-AuNP: negative control BSA gold nanoparticle conjugate | – | No reactivity is visible
